# Marks after values point to notes of the source that are not given here.
# How the values were obtained:
# Assay type in all cases: in vivo
# [1] = tested on: strawberry beetles (Galerucella tenella); assay: Palatability and egg laying selection test on strawberry leaves
# Method: Antifeedant activity of betulin and betulonic acid was tested for strawberry beetles (Galerucella tenella) with adults and larvae using leaves of the plants. The test substances were dissolved in ethanol, and the leaves were treated to achieve a concentration of approx. 100 μg/cm^2 of the test substance. The experiment was carried out as a selection test on a petridisc containing a strawberry leaf having one half treated with the test substance and the other half treated with ethanol only. Two adult strawberry beetles (Galerucella tenella) were placed on the disc (male and female) or two larvae. The number of cavities eaten by the animals were counted daily during four days; simultaneously the number eggs laid by the adults were counted. Both the adults and the larvae had 10 tests. Results from the palatability test and the prevention of egg laying test with strawberry beetles (Galerucella tenella) are shown in the following table 6.
# [2] = tested on: rapeseed beetles of the genus Phyllotreta spp.; assay: Antifeedant activity for rapeseed beetles on rapeseed seedlings (palatability test); conditions: for prevention of beetle feeding: 100 μg/cm^2, FIG. 1 and table 3; for % Surface area of the leaves eaten: 100 μg/cm^2 in rapeseed oil on rapeseed seedlings, after one week, rapeseed oil=100%
# Method: Antifeedant activity for rapeseed beetles of the genus Phyllotreta spp. was tested using betulin 3,28-O-isostearylic diester (prepared as described in example 10), 3,28-diacetoxy betulin (prepared in example 15a), and betulin. Test compounds dissolved in 2 ml of rapeseed oil were sprayed on rapeseed seedlings at the cotyledon stage in an amount of 100 μg/cm^2. The plants thus treated were placed in an insect cage, followed by the introduction of the beetles after 24 hours. In the tests, 20 beetles were used per cage, each cage comprising 3 petridishes with seedlings, one control dish and two different test dishes, the number of the cages (=parallel tests) being 5. Pure rapeseed oil was used as the control. The beetles were allowed free access to all plants, and after one week, the test was stopped, the plants were examined, and feeding damages caused by the beetles were evaluated.
# Number of the damaged leaves and the degree of damage were evaluated (% leaf surface area fed, palatability assessment).
# Betulin 20,29-epoxy-3β,28-diacetate was used as the control compound, prepared as disclosed in J. Arg. Food Chem. 1995, 43, 2513-2516.
# [3] = tested on: lily beetles (Lilioceris lilii) adults; assay: Palatability and egg laying selection test with adults on brown lily leaves; conditions: for Percentage of the eaten relative mass of the leaf: selection test, approx. 100 μg/cm^2, four days, ethanol control 76.4
# Method: (§1) Antifeedant activity of betulin and betulonic acid was tested for lily beetles (Lilioceris lilii) with adults and larvae using leaves of brownlily plants. The test substances were dissolved in ethanol, and the leaves were treated to achieve a concentration of approx. 100 μg/cm^2 of the test substance. The experiment was carried out with adults as a selection test on a petridisc containing two leaves cut from a brown lily plant. One was treated with the test substance and the other treated with ethanol only. Two adult lilybeetles (Lilioceris lilii) were placed on the disc (male and female). The leaf mass eaten by the animals was counted daily during four days by weighing the leaves; simultaneously the number eggs laid by the adults were counted. 10 parallel tests were performed. The test with larvae was a no-choise-test, where either a treated or untreated leaf of brownlily and one beetle larvae was placed on each disc. 7 parallel tests were performed. Results from the palatability test and the prevention of egglaying test with adults and larvae of lily beetles (Lilioceris lilii) are shown in the following table 7. […] Betulonic acid decreased very efficiently egglaying of adults on the leaves (more than 90%). Betulonic acid decreased feeding of larvae efficiently (92%), with betulin this was not observed. In a no-choise situation the larvae died on the betulonic acid treated leaves, in other test treatments they grew normally.
# [4] = tested on: Deroceras agreste (field snails) and Deroceras reticulatum (false field snails); assay: Effect on feeding behaviour of snails, half-treated leaf discs; conditions: for Percentage of the leaf half treated with the test substance vs. total mass eaten: treated half of leaf disc; for Percentage of the leaf half treated with the test substance vs. total mass eaten / Percentage of the control vs. total mass eaten: 36 hours, 100 μg/cm^2 in acetone; for Percentage of the control vs. total mass eaten: untreated half of leaf disc; for ranking of snail test results: 100 μg/cm^2
# Method: Deroceras agreste (field snails) and Deroceras reticulatum (false field snails) snails with lengts of about 2 cm, collected from nature, were used in this antifeedant test. Cabbage and lettuce leaves cut into discs with diameters of 4 cm serving as feed plants were placed on petridishes. Half on each leaf disc was treated with the test substance, the other haft serving as the control. One snail was placed on each plate, and only tests where the snail ate the leaf were assayed. The results were recorded at 36 hours after test initiation. Acetone was used as control, while betulin, betulinic acid, betulonic acid and betulin 28-carboxymethoxy mentholester dissolved in aceton served as test substances. The leaves studied were treated with test substances used in amounts of 100 μg/cm^2, The results from this test are presented in the following table 5.
# [5] = tested on: cabbage white, Mamestra brassicae larvae; assay: Antifeedant activity on cabbage leaf discs, no-choice test; conditions: for Leaf mass eaten by the larvae vs. control, Time/0 h: 100 μg/cm^2, 0 h after treatment; for Leaf mass eaten by the larvae vs. control, Time/21 h: 100 μg/cm^2, 21 h after treatment; for Leaf mass eaten by the larvae vs. control, Time/43 h: 100 μg/cm^2, 43 h after treatment; for Leaf mass eaten by the larvae vs. control, Time/73 h: 100 μg/cm^2, 73 h after treatment; for antifeedant activity on the larvae: FIG. 2, no-choice test
# Method: Antifeedant activity for the […], Mamestra brassicae larvae was tested with six compounds derived from betulin. Discs cut from cabbage leaves, having a diameter of 5 cm, were placed on petridishes and treated with the test agents in an amount of 100 μg/cm^2. One small larva was introduced on each plate. Each agent was tested in 10 parallel studies. Cabbage leaf mass remaining on the dish was weighed after 0, 21, 43 and 73 hours after treatment (hat), and leaf mass eaten by the larva was calculated as percentage based on the control.
# [6] = tested on: lily beetles (Lilioceris lilii) larvae; assay: No-choice feeding test with larvae on brown lily leaves; conditions: for decrease of feeding of larvae / Percentage of the eaten relative mass of the leaf: larvae; for Percentage of the eaten relative mass of the leaf: no-choice test, approx. 100 μg/cm^2, ethanol control 65.3
# Method: as §1
# [7] = tested on: cabbage white, Mamestra brassicae larvae; assay: Antifeedant activity on cabbage leaf discs, no-choice test; conditions: FIG. 3, small larvae (12 to 19 mg), weight after 7 hours vs initial weight
# [8] = larvae, approx. 100 μg/cm^2, four days, ethanol = 100
# [9] = adults, approx. 100 μg/cm^2, four days, ethanol = 100
Molecule,% Surface area of the leaves eaten [2] [%],Percentage of the leaf half treated with the test substance vs. total mass eaten [4] [%],Percentage of the control vs. total mass eaten [4] [%],"Leaf mass eaten by the larvae vs. control, Time/0 h [5] [%]","Leaf mass eaten by the larvae vs. control, Time/21 h [5]","Leaf mass eaten by the larvae vs. control, Time/43 h [5]","Leaf mass eaten by the larvae vs. control, Time/73 h [5] [%]",ranking of snail test results [4],also measured
"C=C(C)[C@@H]1CC[C@]2(CO)CC[C@]3(C)[C@H](CC[C@@H]4[C@@]5(C)CC[C@H](O)C(C)(C)[C@@H]5CC[C@]43C)[C@@H]12 [Betulin, lup-20(29)-ene-3β,28-diol]",58,22.5,77.5,100,101* %,193* %,88,–,"prevention of feeding ([1]; larvae): 78%; Percentage of the relative number of eaten cavities [1, 8]: 21.9%; prevention of beetle feeding [2]: efficiently prevented beetle feeding; prevention (decrease) of feeding [3]: approx. 47%; Percentage of the eaten relative mass of the leaf [3]: 40.7%; decrease of feeding of larvae [6]: not observed; Percentage of the eaten relative mass of the leaf [6]: 64.2%"
"C=C(C)[C@@H]1CC[C@]2(C(=O)O)CC[C@]3(C)C(CCC4[C@@]5(C)CC[C@H](O)C(C)(C)C5CC[C@]43C)C12 (stereo partly drawn) [Betulinic acid, betulinic acid]",–,37.6,62.4,100,46%,67%,80,Best results,weight development of the larvae [7]: lower than the initial weight; antifeedant activity on the larvae [5]: clearly had antifeedant activities
"3,28-O-isostearylic acid diester of betulin [Betulin 3,28-O-isostearylic acid diester]",64,–,–,–,–,–,–,–,prevention of beetle feeding [2]: efficiently prevented beetle feeding
"CC(=O)OCC12CCC(C3(C)CO3)C1C1CCC3C4(C)CCC(OC(C)=O)C(C)(C)C4CCC3(C)C1(C)CC2 (stereo not drawn) [Betulin 20,29-epoxy-3β,28-diacetate, reference compound]",50,–,–,–,–,–,–,–,–
"3,28-C18 alkylene succinic diester of betulin",–,–,–,100,93%,90%,77,–,–
"C=C(C)[C@@H]1CC[C@]2(COC(=O)CO[C@H]3C[C@@H](C)CC[C@@H]3C(C)C)CC[C@]3(C)C(CCC4[C@@]5(C)CC[C@H](O)C(C)(C)C5CC[C@]43C)C12 (stereo partly drawn) [betulin 28-carboxymethoxy menthol ester, 28-carboxymethoxy mentholester of betulin]",–,36.6,63.4,100,126* %,146* %,94,Best results,–
"C=C(C)[C@@H]1CC[C@]2(COC(C)=O)CC[C@]3(C)C(CCC4[C@@]5(C)CC[C@H](OC(C)=O)C(C)(C)C5CC[C@]43C)C12 (stereo partly drawn) [3,28-diacetoxy betulin]",96,–,–,–,–,–,–,–,–
"C=C(C)[C@@H]1CC[C@]2(C(=O)O)CC[C@]3(C)C(CCC4[C@@]5(C)CCC(=O)C(C)(C)C5CC[C@]43C)C12 (stereo partly drawn) [Betulonic acid, betulonic acid]",–,25.8,74.2,100,94%,95%,86,Best results,"prevention of feeding ([1]; adults): approx. 41%; prevention of laying of eggs on the leaves ([1]; adults): more than 90%; Percentage of the number or eggs laid by the females on the leaves [1, 9]: 8.3%; Percentage of the relative number of eaten cavities [1, 9]: 58.7%; prevention of feeding ([1]; larvae): 82%; Percentage of the relative number of eaten cavities [1, 8]: 17.8%; decrease of egglaying of adults on the leaves [3]: more than 90%; prevention (decrease) of feeding [3]: approx. 78%; Percentage of the number or eggs laid by the beetles ([3]; approx. 100 μg/cm^2, ethanol control = 100): 8.7%; Percentage of the eaten relative mass of the leaf [3]: 17.0%; decrease of feeding of larvae [6]: 92%; Percentage of the eaten relative mass of the leaf [6]: 5.2%; fate of larvae on treated leaves ([6]; no-choice situation): died"
28-C18 alkylene succinic ester of betulin,–,–,–,100,103* %,82%,71,–,antifeedant activity on the larvae [5]: clearly had antifeedant activities
